How the values were obtained:
SIK2 [1] = molecular target: T1, SIK2 (Homo sapiens, UniProt Q9H0K1); assay: SIK2 Enzymatic Assay Version 1 (ADP Glo); format: biochemical
Procedure, shortened: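 Kinase activity read as ADP production by ADP-Glo luminescence, all steps at room temperature. Compound and SIK2 (0.6 nM, a 2× concentration) were preincubated 30 min; ATP-only wells lacking peptide were the negative control; depletion 40 min, detection ≥30 min.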

SIK2 [2] = molecular target: T1, SIK2; assay: SIK2 Enzymatic Assay High Version 2 (High ATP); format: biochemical
Procedure, shortened: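 At room temperature, enzyme (6 nM, 2× final) was preincubated with compound for 30 min, then 6 mM ATP and 400 μM HDAC5tide (both 2× final) were added for 2 h. ADP formed was measured by ADP-Glo Max (2 h reagent, 1 h detection) using luminescence.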

[3] = enzyme 0.6 nM, 160 μM ATP and 140 μM HDAC5tide (each 2× final concentration), 30 minutes pre-incubation, 4 hours, ADPGlo luminescence, read-out: SIK2 ADP Glo IC50 (μM) (Test Example 1)

T1 sequence (Q9H0K1 whole entry, species assumed): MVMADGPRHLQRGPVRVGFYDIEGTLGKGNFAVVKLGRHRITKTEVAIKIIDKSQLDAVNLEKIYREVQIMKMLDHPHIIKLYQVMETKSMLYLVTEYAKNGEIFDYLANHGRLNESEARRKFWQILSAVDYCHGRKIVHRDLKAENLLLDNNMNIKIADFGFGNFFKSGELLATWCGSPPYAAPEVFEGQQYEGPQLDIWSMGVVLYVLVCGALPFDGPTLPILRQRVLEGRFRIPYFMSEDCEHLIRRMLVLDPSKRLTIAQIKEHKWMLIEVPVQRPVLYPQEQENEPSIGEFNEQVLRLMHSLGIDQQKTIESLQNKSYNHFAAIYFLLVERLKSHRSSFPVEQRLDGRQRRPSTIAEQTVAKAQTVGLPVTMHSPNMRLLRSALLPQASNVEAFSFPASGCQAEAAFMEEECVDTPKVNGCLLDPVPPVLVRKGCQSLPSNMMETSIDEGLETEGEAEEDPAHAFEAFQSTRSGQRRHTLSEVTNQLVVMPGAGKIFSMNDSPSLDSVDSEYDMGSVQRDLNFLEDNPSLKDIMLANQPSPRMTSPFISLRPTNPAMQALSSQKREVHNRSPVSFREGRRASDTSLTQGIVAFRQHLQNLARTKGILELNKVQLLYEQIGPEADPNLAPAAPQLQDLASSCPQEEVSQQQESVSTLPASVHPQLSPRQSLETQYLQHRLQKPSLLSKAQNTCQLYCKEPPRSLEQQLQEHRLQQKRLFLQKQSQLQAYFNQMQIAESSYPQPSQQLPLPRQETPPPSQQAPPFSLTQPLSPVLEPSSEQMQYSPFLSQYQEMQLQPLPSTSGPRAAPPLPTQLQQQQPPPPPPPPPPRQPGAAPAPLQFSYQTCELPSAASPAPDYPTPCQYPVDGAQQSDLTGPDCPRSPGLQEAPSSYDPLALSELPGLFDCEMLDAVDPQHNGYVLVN

Row | SMILES | IC50 (SIK2 [1]; [3]) [µM] | IC50 (SIK2 [2]) [nM] | IC50 (SIK2 [1]) [µM]
1 | CN1CC[C@@H](Oc2cnc(C#N)cc2-c2ccn3nc(NC(=O)C4CC4)cc3c2)C(F)(F)C1 [Example 11, N-[5-[2-cyano-5-[[(4R)-3,3-difluoro-1-methyl-4-piperidyl]oxy]-4-pyridyl]pyrazolo[1,5-a]pyridin-2-yl]cyclopropanecarboxamide] | 0.0014 | 31.6 | –
2 | Cc1cc(-c2ccn3nc(NC(=O)C4CC4)cc3c2)c(OCC2(N)CC(F)(F)C2)cn1 [Example 145, N-[5-[5-[(1-amino-3,3-difluoro-cyclobutyl)methoxy]-2-methyl-4-pyridyl]pyrazolo[1,5-a]pyridin-2-yl]cyclopropanecarboxamide] | 0.000642 | 16.4 | –
3 | COc1cnccc1-c1ccn2nc(NC(=O)C3CC3)cc2c1 [Example 749, N-[5-(3-methoxy-4-pyridyl)pyrazolo[1,5-a]pyridin-2-yl]cyclopropanecarboxamide] | 0.0179 | 821 | –
4 | N#Cc1cc(-c2ccn3nc(NC(=O)C4CC4)cc3c2)c(OCc2ccccc2)cn1 [Example 753, N-[5-(5-benzyloxy-2-cyano-4-pyridyl)pyrazolo[1,5-a]pyridin-2-yl]cyclopropanecarboxamide] | – | 483 | 0.00298
5 | CC(C)(O)CNc1cnc(C#N)cc1-c1ccn2nc(NC(=O)C3CC3)cc2c1 [Example 81, N-[5-[2-cyano-5-[(2-hydroxy-2-methyl-propyl)amino]-4-pyridyl]pyrazolo[1,5-a]pyridin-2-yl]cyclopropanecarboxamide] | 0.0154 | 278 | –
6 | CN1CC[C@@H](COc2cnc(C#N)cc2-c2ccn3nc(Nc4ccccc4)cc3c2)C1 [Example 106, 4-(2-anilinopyrazolo[1,5-a]pyridin-5-yl)-5-[[(3R)-1-methylpyrrolidin-3-yl]methoxy]pyridine-2-carbonitrile] | 0.00338 | 48.5 | –
7 | Cc1cc(-c2ccn3nc(NC(=O)C4CC4)cc3c2)c(OC[C@H]2CC[C@@H](O)CC2)cn1 [Example 148, cis-N-[5-[5-[(4-hydroxycyclohexyl)methoxy]-2-methyl-4-pyridyl]pyrazolo[1,5-a]pyridin-2-yl]cyclopropanecarboxamide] | 0.00436 | 58.3 | –
8 | Cc1cc(-c2ccn3nc(NC(=O)C4CC4)cc3c2)c(O[C@H]2C[C@H](N)C2)cn1 [Example 170, trans-N-[5-[5-(3-aminocyclobutoxy)-2-methyl-4-pyridyl]pyrazolo[1,5-a]pyridin-2-yl]cyclopropanecarboxamide] | 0.000853 | 12.9 | –
9 | Cc1cc(-c2ccn3nc(Nc4cc(C)nc(C)n4)cc3c2)c(OC[C@@H]2CNCCO2)cn1 [Example 432, N-(2,6-dimethylpyrimidin-4-yl)-5-[2-methyl-5-[[(2S)-morpholin-2-yl]methoxy]-4-pyridyl]pyrazolo[1,5-a]pyridin-2-amine] | 0.000345 | 1.71 | –
10 | N#Cc1cc(-c2ccn3nc(NC(=O)C4CC4)cc3c2)c(O[C@@H]2C[C@H]3C[C@@H]2CN3)cn1 [Example 24, N-[5-[5-[[(1R,4R,5R)-2-azabicyclo[2.2.1]heptan-5-yl]oxy]-2-cyano-4-pyridyl]pyrazolo[1,5-a]pyridin-2-yl]cyclopropanecarboxamide] | 0.00594 | 145 | –
11 | Cc1cc(-c2ccn3nc(Nc4ccccn4)cc3c2)c(OC2CN(C)C2)cn1 [Example 567, 5-[2-methyl-5-(1-methylazetidin-3-yl)oxy-4-pyridyl]-N-(2-pyridyl)pyrazolo[1,5-a]pyridin-2-amine] | 0.00757 | 251 | –

Further lines, results first:

Row | IC50 (SIK2 [1]; [3]) [µM] | IC50 (SIK2 [2]) [nM] | IC50 (SIK2 [1]) [µM] | SMILES
12 | 0.00059 | 8.8 | – | Cc1cc(-c2ccn3nc(NC(=O)C4CC4)cc3c2)c(OC[C@@H]2CNC(C)(C)CO2)cn1 [Example 167, N-[5-[5-[[(2S)-5,5-dimethylmorpholin-2-yl]methoxy]-2-methyl-4-pyridyl]pyrazolo[1,5-a]pyridin-2-yl]cyclopropanecarboxamide]
13 | 0.00321 | 55.9 | – | Cc1cc(-c2ccn3nc(NC(=O)C4CC4)cc3c2)c(OC[C@@H]2CCN(C)C2)cn1 [Example 509, N-[5-[2-methyl-5-[[(3R)-1-methylpyrrolidin-3-yl]methoxy]-4-pyridyl]pyrazolo[1,5-a]pyridin-2-yl]cyclopropanecarboxamide]
14 | 0.00122 | 10.2 | – | N#Cc1cc(-c2ccn3nc(NC(=O)C4CC4)cc3c2)c(OC[C@@H]2CC[C@H](N)C2)cn1 [Example 20, N-[5-[5-[[(1R,3S)-3-aminocyclopentyl]methoxy]-2-cyano-4-pyridyl]pyrazolo[1,5-a]pyridin-2-yl]cyclopropanecarboxamide]
15 | 0.000791 | 18 | – | CN1C[C@@H]2C[C@H]1C[C@H]2Oc1cnc(C#N)cc1-c1ccn2nc(NC(=O)C3CC3)cc2c1 (single isomer, unassigned) [Example 595, (1*S, 4*S, 5*R)—N-[5-[2-cyano-5-[(2-methyl-2-azabicyclo[2.2.1]heptan-5-yl)oxy]-4-pyridyl]pyrazolo[1,5-a]pyridin-2-yl]cyclopropanecarboxamide]
16 | 0.000435 | 2.58 | – | N#Cc1cc(-c2ccn3nc(NC(=O)C4CC4)cc3c2)c(O[C@@H]2CNC[C@H](C(F)(F)F)C2)cn1 [Example 95, N-[5-[2-cyano-5-[[(3S,5R)-5-(trifluoromethyl)-3-piperidyl]oxy]-4-pyridyl]pyrazolo[1,5-a]pyridin-2-yl]cyclopropanecarboxamide]
17 | 0.00439 | 83.1 | – | Cc1cc(-c2ccn3nc(Nc4cccnc4)cc3c2)c(O[C@H]2CC[C@H](O)CC2)cn1 [Example 290, (1r,4r)-4-((6-methyl-4-(2-(pyridin-3-ylamino)pyrazolo[1,5-a]pyridin-5-yl)pyridin-3-yl)oxy)cyclohexan-1-ol]
18 | 0.00205 | 27.1 | – | CC(C)(C#N)COc1cnc(OC(F)F)cc1-c1ccn2nc(Nc3ccn4ncnc4c3)cc2c1 [Example 475, 3-[[6-(difluoromethoxy)-4-[2-([1,2,4]triazolo[1,5-a]pyridin-7-ylamino)pyrazolo[1,5-a]pyridin-5-yl]-3-pyridyl]oxy]-2,2-dimethyl-propanenitrile]
19 | 0.000647 | 7.9 | – | N#Cc1cc(-c2ccn3nc(NC(=O)C4CC4)cc3c2)c(OC[C@H]2C[C@H](N)C2)cn1 [Example 591, N-(5-(5-(((1r,3r)-3-aminocyclobutyl)methoxy)-2-cyanopyridin-4-yl)pyrazolo[1,5-a]pyridin-2-yl)cyclopropanecarboxamide]
20 | 0.0039 | 74 | – | CN1CC[C@@H](COc2cnc(C#N)cc2-c2ccn3nc(Nc4cccnc4)cc3c2)C1 [Example 4, (R)-5-((1-methylpyrrolidin-3-yl)methoxy)-4-(2-(pyridin-3-ylamino)pyrazolo[1,5-a]pyridin-5-yl)picolinonitrile]
21 | 0.00422 | 116 | – | N#Cc1cc(-c2ccn3nc(NC(=O)C4CC4)cc3c2)c(O[C@H]2CCN(Cc3ccccn3)C2)cn1 [Example 109, (S)—N-[5-[2-cyano-5-[(3S)-1-(2-pyridylmethyl)pyrrolidin-3-yl]oxy-4-pyridyl]pyrazolo[1,5-a]pyridin-2-yl]cyclopropanecarboxamide]
22 | 0.000783 | 8.38 | – | N#Cc1cc(-c2ccn3nc(NC(=O)C4CC4)cc3c2)c(OC[C@@H]2CNCCO2)cn1 [Example 19, N-[5-[2-cyano-5-[[(2S)-morpholin-2-yl]methoxy]-4-pyridyl]pyrazolo[1,5-a]pyridin-2-yl]cyclopropanecarboxamide]

From patent publication US20240158392A1 (Janssen Biotech, Inc., priority 2021, published 2024)
